From patent US10702518B2, “TAF1 inhibitors for the therapy of cancer” (CeMM—Forschungszentrum für Molekulare Medizin GmbH, priority 2016, dated 2020)
“Also recorded” adds a separate entry of the source.

Legend:
[1] = tested on: bromodomains of BRD4 (1), BRD4 (2), BRD9, CREBBP, EP300 and TAF1 (2); experiment: BromoELECT bromodomain panel; assay type: binding; conditions: 10 μM
Protocol: (§1) . The assay was done in duplicate (mean±STD); (b) BromoKdELECT assay for CeMMEC1 against TAF1 (2), BRD9, CREBBP and EP300 bromodomains (11 dilutions, from 10 to 0.017 μM). (c) not used (d) KinomeScan profile for CeMMEC1 (10 μM). Bubbles indicate the percentage of inhibition of the binding of the analyzed kinase to an immobilized ligand. (e) BromoELECT assay for CeMMEC1 and analogs A1, A2, 05, 10, 13, 24, 25, 26, 27, 29, 33 and 39 (10 μM) against BRD4 (1), BRD4 (2), BRD9, CREBBP, EP300 and TAF1 (2). (f, g) Docking poses of analog 30 to TAF1 (green) and BRD4 (magenta). (h) Docking of compound 29 to TAF1, no suitable pose could be identified for BRD4. (i) BromoELECT assay for analog 29 (10 μM) against BRD4 (1), BRD9, CREBBP, EP300 and TAF1 (2).

REDS3 cells = experiment: RFP reporter expression in REDS3 cells (live cell imaging); assay type: cell-based, human; conditions: for RFP expression in REDS3 cells: single agent
Protocol: Cells were seeded on clear flat bottom 96-well or 384-well plates (Corning) and treated with the indicated compounds for the specified conditions. Live cell imaging pictures were taken with the Operetta High Content Screening System (PerkinElmer), 20× objective and non-confocal mode.
Only RFP-positive nuclei were detected and counted.
The increase of RFP fluorescence, detected with the Operetta High Content Screening System (PerkinElmer), 20× objective and non-confocal mode, was used as read-out.
Briefly, the screening was divided in three parts called respectively 1) primary screening, 2) follow up and 3) validation. During the primary screening REDS3 cells were treated with 10 μM of every compound, and live cell imaging pictures were taken in order to assess their ability to induce RFP expression 24 hours later.

BRD9 = biological target: T1, BRD9 (Homo sapiens, UniProt Q9H8M2); experiment: BromoScan / BromoKdELECT, BRD9; assay type: binding
T1 sequence (Q9H8M2 136-240 limits assumed): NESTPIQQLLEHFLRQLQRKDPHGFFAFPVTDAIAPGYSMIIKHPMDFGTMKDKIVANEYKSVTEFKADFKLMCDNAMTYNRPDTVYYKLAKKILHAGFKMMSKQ
Protocol: (§2) Bubbles indicate the percentage of inhibition of the binding of the analyzed bromodomains to an acetylated substrate. […] (g) BromoKdELECT assay for CeMMEC1 against TAF1 (2). […] (i) Docking of CeMMEC1 to the second bromodomain of TAF1. 3D model (top panel) and 2D ligand interaction diagram (bottom panel). Red dots in the 3D model indicate water molecules.
(§3) (c) not used (d) KinomeScan profile for CeMMEC1 (10 μM). Bubbles indicate the percentage of inhibition of the binding of the analyzed kinase to an immobilized ligand.

TAF1 = biological target: T2, TAF1 (Homo sapiens, UniProt P21675); experiment: TAF1 binding assay (FRET/HTRF peptide displacement); conditions: FRET analysis, data not shown
T2 construct: TAF1 second bromodomain (Uniprot P21675, residues 1501-1634); made in house; host or cells: E. coli BL21 (DE3)-R3-pRARE2 (stated for the His-tagged construct)
T2 sequence (P21675 1501-1634): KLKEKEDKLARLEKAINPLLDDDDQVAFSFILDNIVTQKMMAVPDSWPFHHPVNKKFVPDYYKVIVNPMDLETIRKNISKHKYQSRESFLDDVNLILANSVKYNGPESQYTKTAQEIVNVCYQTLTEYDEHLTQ
Protocol: TAF1 binding assays were conducted using the EPIgeneous™ Binding Domain kit B (Cisbio Bioassays) according to manufacturer's instructions. Binding was determined by the displacement of an acetylated biotin-peptide from a GST tagged TAF1 protein using HTRF with a Eu3+ conjugated GST antibody donor and streptavidin conjugated acceptor. Compounds were dispensed into assay plates, ProxiPlate-384 Plus (Perkin Elmer) using an Echo 525 Liquid Handler (Labcyte). Binding assays were conducted in a final volume of 20 μl with 5 nM TAF1-GST, 50 nM peptide (SGRGK (ac)GGK (ac)GLGK (ac)GGAK (ac)RHRK (biotin)-acid), 6.25 nM Streptavidin-XL665, 1:200 Anti-GST-Eu3+ cryptate and 0.1% DMSO. Assay reagents were dispensed into plates using a Multidrop combi (Thermo Scientific) and incubated at room temperature for 3 hours. Fluorescence was measured using a PHERAstar microplate reader (BMG) using the HTRF module with dual emission protocol (A=ex. 320 nm em. 665 nm, B=ex. 320 nm em. 620 nm). Raw data were processed to give an HTRF ratio (channel A/B*10000), which was used to generate IC50 curves.

H23 cells = experiment: Cell viability of H23 cells, combination with (S)-JQ1; assay type: cell-based
[2] = tested on: c-MYC expression in WT-KBM7; experiment: c-MYC expression by RT-PCR in WT-KBM7; assay type: cell-based, human; conditions: 1, 10 and 20 μM, 24 hours
Protocol: (c) Percentage of c-MYC expression in WT-KBM7 treated with the selected compounds, assessed by RT-PCR. 1, 10 and 20 μM of each compound were used to treat cells for 24 hours; DMSO was used as negative control and (S)-JQ1 as positive control. Three biological replicates were performed (mean±STD).
RNA extraction was performed with TRIzol Reagent (Life Technologies) according to the manufacturer's protocol and Reverse Transcription (RT) was performed using the High Capacity cDNA Reverse Transcription Kit (Applied Biosystems) following the standard protocol.
QPCR was performed using the Power SYBR Green Master mix (Invitrogen) as described in the manufacturer's protocol.
Real-time amplification results were normalized to the endogenous housekeeping genes Actin or GAPDH. The relative quantities were calculated using the comparative CT (Cycle Threshold) Method (ΔΔCT Method).

CREBBP = CREBBP (Homo sapiens, UniProt Q92793); experiment: BromoScan / BromoELECT / BromoKdELECT, CREBBP; assay type: binding
Chain of CREBBP (Q92793 1085-1192 limits assumed): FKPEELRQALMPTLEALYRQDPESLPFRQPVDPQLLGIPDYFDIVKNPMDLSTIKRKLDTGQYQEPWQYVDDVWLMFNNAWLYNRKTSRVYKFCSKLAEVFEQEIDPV
Protocol: as §2, §3

THP1 cells [3] = experiment: Cell cycle assay in THP1 cells; conditions: 48 hours
Protocol: (e) Quantification of cells in S-phase by staining the nuclei with PI and analyzing DNA content by FACS. […] Three different biological replicates were performed and 30,000 cells were analysed each time (mean±STD).
For cell cycle analysis, cells were fixed with 70% ethanol for 24 hours, washed with PBS/0.1%-Tween and incubated with RNase for 20 minutes. Nuclei were stained with 5 μg/ml PI (propidium iodide, Sigma) for 10 minutes prior to FACS analysis (BD FACSCalibur Flow Cytometer).

BRD4 = BRD4 (Homo sapiens, UniProt O60885); experiment: BromoScan profile, BRD4; assay type: binding; conditions: 10 μM
Excerpt: as §2

THP1 cells [4] = experiment: AnnexinV apoptosis assay in THP1 cells; conditions: 72 hours
Protocol: (f) Quantification of AnnexinV positive cells from immunofluorescence images. […] At least 3 biological replicates were performed and more than 1,500 cells were quantified for each point (mean±STD).
Apoptotic cells were detected using the Annexin V-FITC Apoptosis detection kit (Abcam) according to the manufacturer's instruction. Apoptosis quantification was performed with the Harmony software (PerkinElmer) for nuclei and cytoplasm detection and analysis, adapted for the nucleus diameter range and cell shape of the specific cell line used.

THP1 cells [5] = experiment: Cell viability of THP1 cells, combination with (S)-JQ1; assay type: cell-based, human
TAF1 (2) = biological target: T3, TAF1 (2) (Homo sapiens, UniProt P21675); experiment: BromoScan / BromoELECT / BromoKdELECT, TAF1 (2); assay type: binding
T3 construct: the second bromodomain of TAF1 (TAF1 (2)); purchased DiscoverX Corporation (contract assay); host or cells: T7 phage in E. coli host derived from BL21
T3 sequence (P21675 1519-1628 limits assumed): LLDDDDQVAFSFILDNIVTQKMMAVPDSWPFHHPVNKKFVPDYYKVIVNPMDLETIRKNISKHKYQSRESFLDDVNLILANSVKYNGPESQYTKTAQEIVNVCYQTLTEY
Protocol: as §2, §3

[6] = tested on: 97 representative kinases; experiment: KinomeScan profile; assay type: binding; conditions: 10 μM; 97 kinases
Protocol: as §1

EP300 = biological target: T4, EP300 (Homo sapiens, UniProt Q09472); experiment: BromoScan / BromoKdELECT, EP300; assay type: binding
T4 sequence (Q09472 1049-1156 limits assumed): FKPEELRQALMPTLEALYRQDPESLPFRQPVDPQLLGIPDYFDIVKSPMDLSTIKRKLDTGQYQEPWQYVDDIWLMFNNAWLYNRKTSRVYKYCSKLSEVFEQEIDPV
Protocol: as §2, §3

BRD4 (BD2) = biological target: T5, BRD4 (BD2) (Homo sapiens, UniProt O60885); experiment: AlphaLISA, second bromodomain of BRD4; assay type: binding; conditions: 10 μM
T5 construct: AlphaLISA assays for the first (black columns, BD1) and the second (grey columns, BD2) bromodomains of BRD4
Excerpt: (§4) The Amplified Luminescent Proximity Homogenous Assay (AlphaLISA©) is the homogenous and chemiluminescence-based method, used to explore the direct interaction of the identified small molecules with BRD4 and therefore, measure the IC50 values of the direct BRD4 inhibitors.
(§5) Briefly, in this assay, the biotinylated histone peptide substrate is captured by streptavidin-coupled donor beads. The GST-tagged bromodomain is recognized and bound by an anti-GST antibody conjugated with an acceptor bead. In absence of an inhibitor, the bromodomain binds to histone peptide substrate. […] The event of a signal (alpha count) can only take place when the interaction partners are in proximity (<200 nm).
(§6) The AlphaLISA was performed for both bromodomains of BRD4 using the BRD4 (BD1) Inhibitor Screening Kit (BPS Bioscience) and BRD4 (BD2) Inhibitor Screening Kit (BPS Bioscience) following the manufacturer's protocol. For the GST full length BRD4 purified from BL21 cells, a mixture of acetylated substrates from the BD1 and BD2 Inhibitor Screening Kit reported above was used.
(§7) Compounds were tested at a final assay concentration of 10 μM in duplicates. […] Reaction was initiated by adding one of the two bromodomains (BD1 or BD2) or the GST full length BRD4. […]

KBM7 cells = experiment: CellTiterGlo viability of control and TAF1 downregulated KBM7 cells; conditions: shRNA TAF1 vs control, 96 hours
BRD4 (BD1) = biological target: T6, BRD4 (BD1) (Homo sapiens, UniProt O60885); experiment: AlphaLISA, first bromodomain of BRD4; assay type: binding; conditions: 10 μM
T6 construct: AlphaLISA assays for the first (black columns, BD1) and the second (grey columns, BD2) bromodomains of BRD4
Excerpt: as §4, §5, §6, §7

`Cn1cc(C(=O)Nc2ccc3c(c2)OCCO3)c(=O)[nH]c1=O` [Compound 35] was tested, and the “binding to the tested bromodomain proteins” value [1] was “bound neither of the tested bromodomain proteins”, the “RFP expression in REDS3 cells in combination with (S)-JQ1” value (“RFP expression in REDS3 cells … (S)-JQ1” below) (REDS3 cells) was “The same effect was not achieved” and the “RFP expression in REDS3 cells” value (REDS3 cells) was “nor did they induce RFP expression in REDS3 cells”.
For `Cn1cc(C(=O)Nc2ccc3c(c2)OCCO3)c(=O)n(C)c1=O` [Compound 32], the “binding to the tested bromodomain proteins” value [1] was “bound neither of the tested bromodomain proteins”, the “RFP expression in REDS3 cells … (S)-JQ1” value (REDS3 cells) was “The same effect was not achieved” and the “RFP expression in REDS3 cells” value (REDS3 cells) was “nor did they induce RFP expression in REDS3 cells”.
In the case of `Cn1cc(C(=O)Nc2ccc3c(c2)OCCO3)c2ccccc2c1=O` [CeMMEC1], the “binding constant, BRD9” value (BRD9; BromoKdELECT (FIG. 8b)) is reported as “sub-micromolar binding constants”, the “binding to BRD9” value (BRD9; BromoScan, 10 μM) is reported as “high affinity” and the “displacement of tetra-acetylated H4 peptide from TAF1 binding site” value (TAF1) is reported as “displaced a tetra-acetylated H4 peptide with good efficacy”. The “cell viability, combination with (S)-JQ1” value (H23 cells) was “more efficiently impairing cell viability than the individual treatments”, the “synergy with (S)-JQ1 (Bliss independence test)” value (H23 cells) was “confirmed the synergism” and the c-MYC expression [2] was “capable of reducing the expression of this oncogene in a dose-dependent manner”. The “binding constant, CREBBP” value (CREBBP; BromoKdELECT (FIG. 8b)) was “sub-micromolar binding constants”, the “binding to CREBBP” value (CREBBP; BromoScan/BromoELECT, 10 μM) was “high affinity” and the “number of cells in S-phase” value (THP1 cells [3]) was “clear and dose-dependent decrease of the number of cells in S-phase”. For the same compound, the “binding to BRD4” value (BRD4) was “only bound BRD4 very weakly”, the “apoptosis (AnnexinV staining)” value (THP1 cells [4]) was “induced apoptosis” and the “cell viability, combination with (S)-JQ1” value (THP1 cells [5]) was “more efficiently impairing cell viability than the individual treatments”. For the same compound, the “synergy with (S)-JQ1 (Bliss independence test)” value (THP1 cells [5]) was “confirmed the synergism”, the “binding constant, TAF1 (2)” value (TAF1 (2); BromoKdELECT (FIG. 8b)) was “sub-micromolar binding constants” and the Kd (TAF1 (2); BromoKdELECT assay (FIG. 4g)) was 1400 nM. The “binding to TAF1 (2)” value (TAF1 (2); BromoScan/BromoELECT, 10 μM) was “high affinity”, the inhibition of kinases [6] was no more than 60% and the “binding constant, EP300” value (EP300; BromoKdELECT (FIG. 8b)) was “sub-micromolar binding constants”. For the same compound, the “binding to EP300” value (EP300; BromoScan, 10 μM) was “high affinity”, the “binding to the second bromodomain of BRD4” value (BRD4 (BD2)) was “neither able to bind the first nor the second bromodomain of BRD4” and the “cell viability with TAF1 downregulation” value (KBM7 cells) was “impaired cell viability in TAF1 downregulated cells”. For the same compound, the “binding to the first bromodomain of BRD4” value (BRD4 (BD1)) was “neither able to bind the first nor the second bromodomain of BRD4”, the “RFP expression in REDS3 cells … (S)-JQ1” value (REDS3 cells) was “further boosted RFP expression beyond the increase in single treatments” and the “RFP expression in REDS3 cells” value (REDS3 cells) was “expressed RFP detected by live cell imaging in a dose-dependent manner; also recorded: comparable induction of RFP expression in REDS3 cells”.
